{
  "source": "patent US8404752B2",
  "about": "“Method of treating traumatic brain injury” (Oxygen Biotherapeutics, Inc., priority 2008, dated 2013)",
  "assay": "Physical properties and gas carrying capacity of perfluoro-tert-butylcyclohexane",
  "type": "physicochemical",
  "data": [
    {"smiles": "FC(F)(F)C(C(F)(F)F)(C(F)(F)F)C1(F)C(F)(F)C(F)(F)C(F)(F)C(F)(F)C1(F)F", "note": "[perfluoro-tert-butylcyclohexane]", "values": [
      {"measurement": "CO2 carried", "result": "196 ml of CO2 per 100 ml of PFC"},
      {"measurement": "lipophilicity", "result": "non-lipophilic"},
      {"measurement": "oxygen carried", "result": "about 43 mL of oxygen per 100 ml of PFC"},
      {"measurement": "water solubility", "result": "non-water soluble"},
      {"measurement": "Vapor Pressure", "setting": "@ 25° C.", "result": 3.8, "unit": "mmHg"},
      {"measurement": "Vapor Pressure", "setting": "@ 37° C.", "result": 4.4, "unit": "mmHg"}
    ]}
  ]
}
